Laboratory results: US7122624B2, “Parathyroid hormone receptor ligands” (The United States of America as represented by the …, priority 1999, dated 2006)
Non-standard residues stand in square brackets, D forms with d. Residues, ends and D or L forms follow the SMILES beside them. Nle = CCCC[C@H](N)C(=O)O

Columns and labels:
P2-NP1 receptor = target: T1, P2-NP1 receptor (Homo sapiens, UniProt P49190+Q03431, A242R/A272V/A275H/A276I/A279I/A426C/A456S/C397H/D353E/DEL244-271/DEL429-429/DEL62-106/E317D/E431S/F287M/F327I/F461Y/G350R/G395V/I363Y/I379L/I381T/I470V/INS277[…]/K318T/K359I/L228V/L289I/L331F/L389I/L407A/L416V/L436G/L446F/M312V/M414V/M425V/M445L/N348D/N358D/P415L/Q401K/Q438E/Q440R/R282K/R390W/R396G/S308N/S341V/S356A/S370A/S433T/S473M/T273H/T286V/T325I/T349A/T427L/T430H/T435L/V235T/V283I/V326L/V334A/V338A/V340A/V342A/V365A/V372G/V432F/V439I/Y443C); experiment: Filtration binding assay, COS-7 membranes, P2-NP1 chimeric receptor; settings: 10 μM GTPγS
T1 construct: N-terminal domain and first transmembrane domain of the PTH 1 receptor fused to the remainder of the PTH2 receptor (P2-NP1); residues 172–550 of the PTH2 receptor; expressed in transfected cells; host or cells: COS-7 (transient)
T1 sequence (Q03431+P49190 fused with the stated changes): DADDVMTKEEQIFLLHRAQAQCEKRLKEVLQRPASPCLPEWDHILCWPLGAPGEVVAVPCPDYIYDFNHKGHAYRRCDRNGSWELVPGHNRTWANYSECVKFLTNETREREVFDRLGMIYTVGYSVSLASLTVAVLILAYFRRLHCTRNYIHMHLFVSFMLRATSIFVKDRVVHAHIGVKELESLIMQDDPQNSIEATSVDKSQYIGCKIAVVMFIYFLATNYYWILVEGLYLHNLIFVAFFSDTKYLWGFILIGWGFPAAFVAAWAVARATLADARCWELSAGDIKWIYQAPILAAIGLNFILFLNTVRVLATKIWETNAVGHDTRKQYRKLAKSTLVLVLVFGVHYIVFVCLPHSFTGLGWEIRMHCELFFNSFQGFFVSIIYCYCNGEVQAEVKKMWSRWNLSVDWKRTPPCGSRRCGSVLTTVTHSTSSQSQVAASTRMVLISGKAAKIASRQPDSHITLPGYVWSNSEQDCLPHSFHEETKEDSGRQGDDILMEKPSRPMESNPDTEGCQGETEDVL

PTH2 receptor [1] = target: T2, PTH2 receptor (Homo sapiens, UniProt P49190); experiment: Filtration binding assay, COS-7 membranes, wild-type PTH2 receptor; parameters: expressed in transfected cells; host or cells: COS-7 (transient), pcDNA1/Amp; settings: 10 μM GTPγS
T2 sequence (P49190 25-550): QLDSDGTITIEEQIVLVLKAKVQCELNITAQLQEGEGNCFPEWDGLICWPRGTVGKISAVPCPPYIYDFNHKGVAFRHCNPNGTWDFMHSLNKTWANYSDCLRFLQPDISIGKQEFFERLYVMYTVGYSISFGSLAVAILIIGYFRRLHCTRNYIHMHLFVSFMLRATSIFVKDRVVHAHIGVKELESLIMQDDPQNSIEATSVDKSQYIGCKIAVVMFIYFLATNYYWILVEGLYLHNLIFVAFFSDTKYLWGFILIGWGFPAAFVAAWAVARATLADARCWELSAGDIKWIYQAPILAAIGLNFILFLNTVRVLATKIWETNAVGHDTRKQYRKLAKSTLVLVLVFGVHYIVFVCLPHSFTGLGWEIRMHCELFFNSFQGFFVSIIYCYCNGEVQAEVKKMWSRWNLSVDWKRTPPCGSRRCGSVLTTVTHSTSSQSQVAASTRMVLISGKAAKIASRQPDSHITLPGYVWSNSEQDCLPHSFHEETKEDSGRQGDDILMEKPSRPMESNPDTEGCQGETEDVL

PTH2 receptor [2] = target: T2, PTH2 receptor; experiment: Radioligand displacement binding to HEK293 cell membranes expressing the human PTH2 receptor; settings: 10 μM GTPγS, filtration assay
PTH1 receptor = experiment: Filtration binding assay, COS-7 membranes, wild-type PTH1 receptor; parameters: species or system human; settings: 10 μM GTPγS
P1-NP2 receptor = target: T3, P1-NP2 receptor (Homo sapiens, UniProt P49190+Q03431, A289V/A293V/A295V/A297V/A304T/A311S/A320V/A325S/A362L/C381A/C397Y/D272E/D303N/D313N/DEL207-232/E308D/E392Q/F286L/F386V/F400L/G327V/G351R/G390L/H202T/H204A/H352C/H384T/I205A/I234A/I238V/I244L/I280T/I282F/I314K/I344L/I393V/INS200[…]/INS383Y/K237R/K356Q/L281V/L334I/L370P/L382T/L389T/L399M/M242F/M427S/N263S/R199A/R305G/R394Q/S385E/S410A/T192V/T273K/T336I/T387S/V185L/V201A/V241T/V267M/V296S/V350G/V369M/V371L/V380M/V424I/W345R/Y318I/Y415F); experiment: Filtration binding assay, COS-7 membranes, P1-NP2 chimeric receptor; settings: 10 μM GTPγS
T3 construct: the N-terminal domain and first transmembrane domain of the PTH2 receptor fused to the remainder of the PTH1 receptor (P1-NP2); exchanging residues 215–594 of the PTH1 receptor; expressed in transfected cells; host or cells: COS-7 (transient)
T3 sequence (P49190+Q03431 fused with the stated changes): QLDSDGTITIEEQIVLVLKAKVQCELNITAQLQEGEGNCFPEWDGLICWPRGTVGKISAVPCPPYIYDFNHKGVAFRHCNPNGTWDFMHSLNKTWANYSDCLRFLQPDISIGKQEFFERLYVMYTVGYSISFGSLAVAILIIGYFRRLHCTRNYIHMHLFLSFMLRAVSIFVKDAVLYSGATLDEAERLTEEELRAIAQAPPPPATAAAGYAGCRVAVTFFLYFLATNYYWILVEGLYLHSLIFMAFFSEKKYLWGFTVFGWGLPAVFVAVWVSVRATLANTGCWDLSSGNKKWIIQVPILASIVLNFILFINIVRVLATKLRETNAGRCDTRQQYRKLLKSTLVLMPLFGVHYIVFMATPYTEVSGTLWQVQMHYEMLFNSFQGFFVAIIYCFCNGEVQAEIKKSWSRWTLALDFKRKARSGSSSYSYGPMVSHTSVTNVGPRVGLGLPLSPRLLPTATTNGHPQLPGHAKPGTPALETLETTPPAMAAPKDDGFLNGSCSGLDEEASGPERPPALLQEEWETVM

[3] = target: T4, C-terminal hemaglutinin-tagged human PTH1 receptor (Homo sapiens, UniProt Q03431); experiment: cAMP accumulation in COS-7 cells expressing a C-terminal hemaglutinin-tagged human PTH1 receptor; assay type: cell-based; settings: COS-7; five experiments; read-out: Emax, % of the maximal response to rPTH(1–34)
T4 sequence (Q03431 27-593): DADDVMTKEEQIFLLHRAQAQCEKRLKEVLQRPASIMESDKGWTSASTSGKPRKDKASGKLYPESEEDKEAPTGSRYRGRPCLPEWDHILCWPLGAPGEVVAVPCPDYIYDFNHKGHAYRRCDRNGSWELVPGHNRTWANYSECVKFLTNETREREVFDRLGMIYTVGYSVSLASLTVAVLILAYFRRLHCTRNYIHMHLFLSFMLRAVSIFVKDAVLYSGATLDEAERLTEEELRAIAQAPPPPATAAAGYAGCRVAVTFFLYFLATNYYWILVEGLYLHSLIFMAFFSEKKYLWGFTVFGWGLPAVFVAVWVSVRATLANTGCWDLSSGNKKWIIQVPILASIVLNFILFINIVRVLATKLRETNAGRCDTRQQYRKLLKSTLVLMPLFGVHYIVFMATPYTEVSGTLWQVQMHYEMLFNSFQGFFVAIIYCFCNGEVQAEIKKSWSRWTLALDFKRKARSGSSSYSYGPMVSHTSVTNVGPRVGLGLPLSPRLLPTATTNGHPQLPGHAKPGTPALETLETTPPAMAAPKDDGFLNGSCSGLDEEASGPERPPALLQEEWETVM

human PTH1 receptor [4] = target: T5, human PTH1 receptor (Homo sapiens, UniProt Q03431); experiment: [125I]TIP(7–39) saturation and kinetic binding to the human PTH1 receptor in HEK293 cell membranes; parameters: expressed in transfected cells; settings: estimated by Equation 4 from [125I]TIP(7–39) association; read-out: dissociation rate constant of unlabeled ligand (converted)
T5 sequence (Q03431 27-593): T4 sequence (Q03431 27-593)
Procedure: Binding of [^125I]TIP(7–39) to HEK293 membranes expressing the PTH1 receptor (FIGS. 21 and 22) was performed using rapid filtration to separate bound and free radioligand as described in Examples, using the assay buffer described above. Incubations were carried out in 96-well polypropylene plates. The incubation mixture was transferred to a polyvinylidene fluoride filtration plate (MAHVN45, Millipore, Bedford, Mass.) and the membranes collected by rapid filtration using a Millipore Multiscreen vacuum manifold. In saturation experiments, varying concentrations of [^125I]TIP(7–39) were incubated in triplicate with 10 μg membranes in the absence or presence of 1 μM unlabeled TIP(7–39) (for measurement of total binding and non-specific binding, respectively) for 1 hour at 21° C. In radioligand association experiments, radioligand and buffer were brought to 21° C. by incubation in a water bath for 15 minutes. Similarly pre-warmed membranes were then added to the wells at various time points and the assay wells harvested simultaneously. Non-specific binding in these experiments was defined using 300 nM unlabeled TIP(7–39), incubated with membranes and radioligand for 1 minute and 60 minutes. In the experiment in FIG. 23 a second, unlabeled ligand was included in the assay incubation in order to estimate the association and dissociation rate constants of the unlabeled ligand (see below). In dissociation experiments radioligand and membranes were equilibrated for 60 minutes prior to addition of unlabeled TIP(7–39) (300 nM final concentration) at various time points. All time points were harvested simultaneously. (As a result the shorter time points of the time course were equilibrated with radioligand for between 1 and 2 hours.) Non-specific binding was defined using 300 nM unlabeled TIP(7–39), which was included in the equilibration phase of the assay.
[^125I]TIP(7–39) saturation of the PTH1 receptor was analyzed as follows: First, non-specific binding (measured in the presence of 1 μM TIP(7–39)) was estimated as a fraction of the free radioligand concentration by linear regression. The values of KD and Bmax were obtained by fitting total binding data (measured in the absence of unlabeled ligand) to the following equation using Prism 2.01:
[^125I]TIP(7–39) association data (total binding) were fitted to a bi-exponential association equation to account for association to specific and non-specific sites (FIG. 23). This procedure was used because the value of non-specific binding measured after 60 minutes was slightly greater than the value measured after 1 minute. In the analysis the equilibrium level of non-specific binding was fixed at that measured at 60 minutes. The observed association rate constant for non-specific binding was high (>2 min^−1). The observed association rate of specific radioligand (L) binding (kon(obs)) was fitted by linear regression to the equation kon(obs)=koff+kon[L] where kon and koff are the association and dissociation rate constants respectively. [^125I]TIP(7–39) dissociation data were fitted to a mono-exponential dissociation equation.
The association and dissociation rate constants of unlabeled ligands were determined using the method devised by Motulsky and Mahan, Mol Pharmacol 25, 1–9, 1984, in which association of a radiolabeled antagonist ([^125I]TIP(7–39)) is measured in the presence of a fixed concentration of the unlabeled ligand. […]

human PTH1 receptor [5] = target: T5, human PTH1 receptor; parameters: expressed in transfected cells; host or cells: COS-7 (transient); settings: cited from earlier work
human PTH1 receptor [6] = target: T5, human PTH1 receptor; experiment: cAMP accumulation in HEK293 cells stably expressing the human PTH1 receptor (293PTH1); assay type: cell-based; parameters: expressed in transfected cells; settings: 293PTH1 cells, cAMP
PTH2 receptor [7] = target: T2, PTH2 receptor; experiment: cAMP accumulation in COS-7 cells transiently expressing the human PTH2 receptor; assay type: cell-based; parameters: expressed in transfected cells; host or cells: COS-7 (transient); settings: COS-7
Description: Cell culture supplies were obtained from Life Technologies (Frederick, Md.) except for fetal bovine serum which was from Sigma (St. Louis, Mo.).
The constructs containing the cDNA sequences of the human PTH2 receptor and β-galactosidase have been previously described.
All peptides were purchased from either Bachem (Torrance, Calif.) or Peninsula Laboratories (Belmont, Calif.). The letters ‘b,’ ‘r’ and ‘h’ designate the peptide sequence as bovine, rat and human, respectively. […] [α-^32P]dCTP was purchased from ICN Biomedicals (Costa Mesa, Calif.). Bovine hypothalamic extract was prepared by acid extraction, gel-filtration and reverse-phase HPLC as previously described. […] Antagonist inhibitory potency was examined by measuring the concentration-dependence of rPTH(1–34)-stimulated cAMP accumulation in the presence and absence of antagonist.
Statistical comparison of two sample means was evaluated using the two-tailed Student's t-test. […] Antagonist inhibitory potency was quantified using the pA2, value, the negative logarithm of the concentration of antagonist that produces a two-fold decrease of agonist EC50. This was calculated using the following equation: pA2=((EC50/EC50′)−1)−log [antagonist]

Emax [3] [%] | koff (human PTH1 receptor [4]) [s⁻¹] | activation of the PTH1 receptor (human PTH1 receptor [6]) | EC50 (PTH2 receptor [7]; activation of adenylyl cyclase, figures in brackets) [nM] | agonist character (PTH2 receptor [7]; cAMP) | Emax (PTH2 receptor [7]; read-out: Emax, % of response to 1 μM hPTH(1-34), intrinsic activity) [%] | SMILES | reduction of radioligand binding (P2-NP1 receptor) [%] | reduction of radioligand binding (PTH2 receptor [1]) [%] | reduction of [125I]TIP39 binding (PTH2 receptor [2]) [%] | reduction of radioligand binding (PTH1 receptor) [%] | reduction of radioligand binding (P1-NP2 receptor) [%] | Bmax (human PTH1 receptor [5]; homologous displacement experiments) [pmol/mg] | Kd (human PTH1 receptor [5]; reported previously) [nM]
 |  |  |  |  |  | Nc1nc2c(ncn2[C@@H]2O[C@H](COP(=O)(O)OP(=O)(O)OP(O)(O)=S)[C@@H](O)[C@H]2O)c(=O)[nH]1 [GTPγS] | 69±6 | 53±4 | 62±2 | 5±2 | 63±1 |  | 
26 ± 4 | 0.0005 | not detected | 5.2 | partial agonists | 37 ± 3 | CCCC[C@H](NC(=O)[C@H](CO)NC(=O)[C@H](CO)NC(=O)[C@H](CC(C)C)NC(=O)[C@H](Cc1c[nH]cn1)NC(=O)[C@H](CCCCN)NC(=O)CNC(=O)[C@H](CC(C)C)NC(=O)[C@H](CC(N)=O)NC(=O)[C@H](Cc1c[nH]cn1)NC(=O)[C@H](CCCC)NC(=O)[C@H](Cc1ccccc1)NC(=O)[C@H](CCC(N)=O)NC(=O)[C@@H](NC(=O)[C@H](CCC(=O)O)NC(=O)[C@@H](N)CO)[C@@H](C)CC)C(=O)N[C@@H](CCC(=O)O)C(=O)N[C@@H](CCCNC(=N)N)C(=O)N[C@H](C(=O)N[C@@H](CCC(=O)O)C(=O)N[C@@H](Cc1c[nH]c2ccccc12)C(=O)N[C@@H](CC(C)C)C(=O)N[C@@H](CCCNC(=N)N)C(=O)N[C@@H](CCCCN)C(=O)N[C@@H](CCCCN)C(=O)N[C@@H](CC(C)C)C(=O)N[C@@H](CCC(N)=O)C(=O)N[C@@H](CC(=O)O)C(=O)N[C@H](C(=O)N[C@@H](Cc1c[nH]cn1)C(=O)N[C@@H](CC(N)=O)C(=O)N[C@@H](Cc1ccc(O)cc1)C(N)=O)C(C)C)C(C)C [[Nle^8,18, Tyr^34]bPTH(3-34), [Nle^8,18, Tyr^34]bPTH(3–34) amide] (H-SEIQF[Nle]HNLGKHLSS[Nle]ERVEWLRKKLQDVHNY-NH2; N-terminus assumed) |  |  |  |  |  | 0.7 | 2
